Literature values as cited in patent US20090022799A1, “COMPOSITIONS THAT CONTAIN BETA-GLUCAN TO BE USED FOR THE PREVENTION AND TREATMENT OF DISEASE AND METHODS FOR THEIR USE” (priority 2006, published 2009).
Counter-ions that a name gives are not always drawn.

Experiments:
[1] = human clinical trials
[2] = β-Glucan particles
[3] = forms a suspension in aqueous solution

Row | median particle size [2] | solubility in water [3] | Molecule | safety and tolerability [1]
1 | 3.7-4.6 μm | insoluble | Beta-(1→3)-d-Glucan [β-Glucan] | safe and well-tolerated
2 |  | limited solubility | [H]/N=C(\N/C(=N/[H])NCCCCCCNC(=N)NC(=N)Nc1ccc(Cl)cc1)Nc1ccc(Cl)cc1 [Chlorhexidine hydrochloride, chlorhexidine hydrochloride, reference compound] | 
